The values that follow come from EPA's ToxValDB 9.5 (doi:10.2903/j.efsa.2005.26r).

Series [1] concerns Anas platyrhynchos.
Series [2] relates to Apis mellifera. To be noted: acute; duration: 48 hours; oral; unspecified; mortality.
The test system of series [3] is Colinus virginianus.
Series [4] deals with Daphnia magna. As to conditions: chronic/long-term; duration: 21 days; reproduction.
The test system of series [5] is Oncorhynchus mykiss. To be noted: acute; duration: 96 hours; mortality.
The test system of series [6] is Pimephales promelas. To be noted: chronic/long-term; duration: 28 days.
The test system of series [7] is Rattus norvegicus.
Series [8] concerns Tagia sp. To be noted: acute; duration: 14 days; mortality.
The subject of series [9] is Aphidius rhopalosiphi. In words: LR50; higher = less toxic. As to conditions: acute; duration: 48 hours; mortality.

≈ marks a conversion by molar mass, not a printed value.

With `CNC(=O)ON=C(SC)C(=O)N(C)C` [Oxamyl], the LD50 in [1] (acute, oral, unspecified, mortality) worked out at 3.16 mg/kg; in [2] it was 0.38 µg/piece; in [3] (acute, oral, mortality) it was 9.5 mg/kg; in series [7] (acute, oral, mortality), 2.5 mg/kg. For the same compound, the NOEC turned out to be 50 mg/kg in [1] (reproductive); 10 mg/kg-day in [3] (reproduction developmental); 0.0268 mg/L in series [4]; 0.5 mg/L in [6]; 1.43 mg/kg-day in series [7] (reproduction developmental). The LC50 came to 340 mg/kg in [1] (short-term, oral, feed, mortality); 766 mg/kg in [3] (acute, oral, diet, mortality); 3.13 µg/mL (≈ 14.3 µM) in series [5]; 112 mg/kg in series [8]. Also, in [7] (acute, oral, gavage, M/F, clinical signs), the NOAEL (commonly the highest dose or exposure tested at which no adverse effect was seen) stood at 0.1 mg/kg-day. Moreover, the LR50 in series [9] amounted to 0.03 g/ha.
